Here are results for four compounds from US8440853B2, “Ester compound and use thereof” (Sumitomo Chemical Company, Limited, priority 2010, dated 2013).

What all share (assay type): in vivo
Experiment [1] deals with German cockroaches (Blattella germanica). Briefly: Knock-down test, oil solution sprayed on German cockroaches (Test Example 2). The following applies: adult German cockroaches, 0.1% (w/v) oil solution, 1.5 ml sprayed. The procedure:
Zero point one (0.1) part of the compound of the present inventions (1), (2),(3) and (5) was dissolved in 10 parts of isopropyl alcohol and the solution was mixed with 89.9 parts of deodorized kerosene to prepare a 0.1% (w/v) oil solution.
Ten adult German cockroaches (Blattella germanica, 5 males and 5 females) were released in a test container (diameter 8.75 cm, 7.5 cm high, the bottom face is made of 16 mesh metallic wire), the inner face on which butter was applied, and the container was set at the bottom of a test chamber (bottom face: 46 cm×46 cm, height: 70 cm).
Each 1.5 ml of the oil solution of the compound of the present invention (1), (2), (3) and (5) was sprayed using a spray gun at a pressure of 0.4 kg/cm^2 from 60 cm higher than the upper face of the container. Thirty seconds after the spraying, the container was pulled out from the chamber. Two minutes after spraying, the number of knocked-down cockroaches was counted and a knock-down ratio was determined (repeated once). A knocked-down ratio was calculated by the following equation. Knocked-down ratio (%)=(Number of knocked-down cockroaches/Number of test cockroaches)×100 The results (2 minutes after spraying) are shown in Table 2.

For experiment [2], the system named is houseflies (Musca domestica). Kind of experiment: Knock-down test, oil solution sprayed into glass chamber with houseflies (Test Example 4). Particulars: adult houseflies, 0.00625% (w/v) oil solution, 0.7 ml sprayed into 70 cm cubic glass chamber. The procedure:
Zero point zero zero six two five(0.00625) part of the compound of the present invention (1), (3) and (4) was dissolved in 10 parts of isopropyl alcohol, and the solution was mixed with 89.99375 parts of deodorized kerosene to prepare a 0.00625% (w/v) oil solution.
Ten adult houseflies (Musca domestica) were released in a cubic glass chamber having each side of 70 cm, and 0.7 ml of the oil solution of the compound of the present invention (1), (3) and (4) was sprayed into the chamber through a small window on the side of the chamber using a spraying gun at a pressure of 0.9 kg/cm^2. Seven minutes after spraying, the number of knocked-down flies was counted and a knock-down ratio was determined. A knocked-down ratio was calculated by the following equation. Knocked-down ratio (%)=(Number of knocked-down flies/Number of test flies)×100

Experiment [3] relates to common mosquitoes (Culex pipens pallens). Kind of experiment: Knock-down test, oil solution sprayed into glass chamber with common mosquitoes (Test Example 3). The following applies: adult female common mosquitoes, 0.00625% (w/v) oil solution sprayed into 70 cm cubic glass chamber. The procedure: Zero point zero zero six two five(0.00625) part of the compound of the present invention (1) was dissolved in 10 parts of isopropyl alcohol, and the solution was mixed with 89.99375 parts of deodorized kerosene to prepare a 0.00625% (w/v) oil solution.
Ten adult female common mosquitoes (Culex pipens pallens) were released in a cubic glass chamber having each side of 70 cm. The oil solution of the compound of the present invention (1) was sprayed into the chamber through a small window on the side of the chamber using a spraying gun at a pressure of 0.9 kg/cm^2. Ten minutes after spraying, the number of knocked-down mosquitoes was counted and a knock-down ratio was determined. A knocked-down ratio was calculated by the following equation. Knocked-down ratio (%)=(Number of knocked-down mosquitoes/Number of test mosquitoes)×100

The test system of experiment [4] is American cockroaches (Periplaneta Americana). Briefly: Knock-down test, oil solution sprayed on American cockroaches (Test Example 1). The following applies: adult American cockroaches, 0.1% (w/v) oil solution, 1.5 ml sprayed. The procedure:
Zero point one (0.1) part of the compound of the present inventions (1) was dissolved in 10 parts of isopropyl alcohol and the solution was mixed with 89.9 parts of deodorized kerosene to prepare a 0.1% (w/v) oil solution.
Six adult American cockroaches (Periplaneta Americana, 3 males and 3 females) were released in a test container (diameter 12.5 cm, 10 cm high, the bottom face is made of 16 mesh metallic wire), the inner face on which butter was applied, and the container was set at the bottom of a test chamber (bottom face: 46 cm×46 cm, height: 70 cm). One point five (1.5) ml of the oil solution of the compound of the present invention (1) was sprayed using a spray gun at a pressure of 0.4 kg/cm^2 from 60 cm higher than the upper face of the container. Thirty seconds after the spraying, the container was pulled out from the chamber. Ten minutes after spraying, the number of knocked-down cockroaches was counted and a knock-down ratio was determined (repeated twice). The knocked-down ratio was calculated by the following equation. Knocked-down ratio (%)=(Number of knocked-down cockroaches/Number of test cockroaches)×100

`CCCCSC(C#N)=C[C@@H]1[C@@H](C(=O)OCc2c(F)c(F)c(COC)c(F)c2F)C1(C)C` [compound of the present invention (2), 4-methoxymethyl-2,3,5,6-tetrafluorobenzyl=(1R)-trans-3-[(1EZ)-2-cyano-2-(butylthio)ethenyl]-2,2-dimethylcyclopropane carboxylate]: the “Knock-down ratio (%) 2 minutes after spraying” value (“Knock-down ratio (%) 2 minutes” for short) in experiment [1] was 100%.

Take `CCSC(C#N)=C[C@@H]1[C@@H](C(=O)OCc2c(F)c(F)c(COC)c(F)c2F)C1(C)C` [compound of the present invention (3), 4-methoxymethyl-2,3,5,6-tetrafluorobenzyl=(1R)-trans-3-[(1EZ)-2-cyano-2-(ethylthio)ethenyl]-2,2-dimethylcyclopropane carboxylate]: in experiment [1], the “Knock-down ratio (%) 2 minutes” value came out at 100%. In addition, the “Knock-down ratio (%) 7 minutes after spraying” value in experiment [2] was 95%.

Turning to `CCSC(C#N)=C[C@@H]1[C@@H](C(=O)OCc2c(F)c(F)c(C)c(F)c2F)C1(C)C` (relative stereo) [compound of the present invention (5), 4-methyl-2,3,5,6-tetrafluorobenzyl=(1R)-trans-3-[(1EZ)-2-cyano-2-(ethylthio)ethenyl]-2,2-dimethylcyclopropane carboxylate], in experiment [1], the “Knock-down ratio (%) 2 minutes” value came out at 100%.

Turning to `COCc1c(F)c(F)c(COC(=O)[C@@H]2[C@@H](/C=C(\C#N)SC)C2(C)C)c(F)c1F` [compound of the present invention (1), 4-methoxymethyl-2,3,5,6-tetrafluorobenzyl=(1R)-trans-3-[(1E)-2-cyano-2-(methylthio)ethenyl]-2,2-dimethylcyclopropane carboxylate], in experiment [1], the “Knock-down ratio (%) 2 minutes” value is 100%. The “Knock-down ratio (%) 10 minutes after spraying” value came to 94% in experiment [3] and 100% in experiment [4]. The “Knock-down ratio (%) 7 minutes after spraying” value in experiment [2] was 100%.
